From patent US11739098B2 (BRISTOL-MYERS SQUIBB COMPANY, priority 2017, dated 2023)

What was measured:
Format in all cases: cell-based
human TLR7 = target: T1, human TLR7 (Homo sapiens, UniProt Q9NYK1); experiment: TLR7 inhibition reporter assay (HEK-Blue cells, SEAP reporter, gardiquimod stimulation); details: HEK-Blue cells overexpressing human TLR7, SEAP reporter, gardiquimod 7.5 μM
T1 construct: host or cells: HEK-Blue cells (HEK293-derived reporter line)
T1 sequence (Q9NYK1 27-1049): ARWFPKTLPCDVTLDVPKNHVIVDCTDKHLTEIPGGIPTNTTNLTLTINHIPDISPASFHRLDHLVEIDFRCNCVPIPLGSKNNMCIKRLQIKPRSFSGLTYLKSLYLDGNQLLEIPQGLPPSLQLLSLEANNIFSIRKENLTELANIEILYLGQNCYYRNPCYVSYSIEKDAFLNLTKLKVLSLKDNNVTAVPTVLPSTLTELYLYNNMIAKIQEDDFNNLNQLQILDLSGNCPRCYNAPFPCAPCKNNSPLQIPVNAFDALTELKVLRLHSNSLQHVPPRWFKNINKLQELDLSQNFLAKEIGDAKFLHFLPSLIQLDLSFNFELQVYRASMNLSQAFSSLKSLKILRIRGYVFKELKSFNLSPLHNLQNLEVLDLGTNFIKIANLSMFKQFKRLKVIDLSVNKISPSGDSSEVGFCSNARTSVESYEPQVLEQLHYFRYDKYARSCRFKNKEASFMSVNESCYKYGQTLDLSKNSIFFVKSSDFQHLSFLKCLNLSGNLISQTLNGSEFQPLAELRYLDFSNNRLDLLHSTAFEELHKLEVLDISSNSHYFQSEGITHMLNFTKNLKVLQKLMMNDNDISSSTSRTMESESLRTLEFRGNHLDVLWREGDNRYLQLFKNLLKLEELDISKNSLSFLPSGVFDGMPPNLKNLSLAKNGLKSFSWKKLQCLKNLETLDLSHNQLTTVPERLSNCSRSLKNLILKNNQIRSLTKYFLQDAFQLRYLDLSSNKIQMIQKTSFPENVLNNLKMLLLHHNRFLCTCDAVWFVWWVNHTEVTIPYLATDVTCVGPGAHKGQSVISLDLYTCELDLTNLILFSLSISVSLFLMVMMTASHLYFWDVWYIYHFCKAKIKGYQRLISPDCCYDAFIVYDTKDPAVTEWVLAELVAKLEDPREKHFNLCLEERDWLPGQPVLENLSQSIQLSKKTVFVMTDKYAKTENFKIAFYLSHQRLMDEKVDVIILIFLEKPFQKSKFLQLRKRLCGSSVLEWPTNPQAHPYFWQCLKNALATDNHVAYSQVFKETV
Method in brief: (§1)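 Cells seeded per well (15000 TLR7, 20,000 TLR8, 25,000 TLR9); compound added over 0.05 nM–50 μM for 30 min at room temperature; agonist added (TLR7 gardiquimod 7.5 μM, TLR8 R848 15.9 μM, TLR9 ODN2006 5 nM); 22 h at 37 °C; SEAP measured; percent inhibition calculated.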

human TLR8 = target: T2, human TLR8 (Homo sapiens, UniProt Q9NR97); experiment: TLR8 inhibition reporter assay (HEK-Blue cells, SEAP reporter, R848 stimulation); details: HEK-Blue cells overexpressing human TLR8, SEAP reporter, R848 15.9 μM
T2 construct: host or cells: HEK-Blue cells (HEK293-derived reporter line)
T2 sequence (Q9NR97 27-1041): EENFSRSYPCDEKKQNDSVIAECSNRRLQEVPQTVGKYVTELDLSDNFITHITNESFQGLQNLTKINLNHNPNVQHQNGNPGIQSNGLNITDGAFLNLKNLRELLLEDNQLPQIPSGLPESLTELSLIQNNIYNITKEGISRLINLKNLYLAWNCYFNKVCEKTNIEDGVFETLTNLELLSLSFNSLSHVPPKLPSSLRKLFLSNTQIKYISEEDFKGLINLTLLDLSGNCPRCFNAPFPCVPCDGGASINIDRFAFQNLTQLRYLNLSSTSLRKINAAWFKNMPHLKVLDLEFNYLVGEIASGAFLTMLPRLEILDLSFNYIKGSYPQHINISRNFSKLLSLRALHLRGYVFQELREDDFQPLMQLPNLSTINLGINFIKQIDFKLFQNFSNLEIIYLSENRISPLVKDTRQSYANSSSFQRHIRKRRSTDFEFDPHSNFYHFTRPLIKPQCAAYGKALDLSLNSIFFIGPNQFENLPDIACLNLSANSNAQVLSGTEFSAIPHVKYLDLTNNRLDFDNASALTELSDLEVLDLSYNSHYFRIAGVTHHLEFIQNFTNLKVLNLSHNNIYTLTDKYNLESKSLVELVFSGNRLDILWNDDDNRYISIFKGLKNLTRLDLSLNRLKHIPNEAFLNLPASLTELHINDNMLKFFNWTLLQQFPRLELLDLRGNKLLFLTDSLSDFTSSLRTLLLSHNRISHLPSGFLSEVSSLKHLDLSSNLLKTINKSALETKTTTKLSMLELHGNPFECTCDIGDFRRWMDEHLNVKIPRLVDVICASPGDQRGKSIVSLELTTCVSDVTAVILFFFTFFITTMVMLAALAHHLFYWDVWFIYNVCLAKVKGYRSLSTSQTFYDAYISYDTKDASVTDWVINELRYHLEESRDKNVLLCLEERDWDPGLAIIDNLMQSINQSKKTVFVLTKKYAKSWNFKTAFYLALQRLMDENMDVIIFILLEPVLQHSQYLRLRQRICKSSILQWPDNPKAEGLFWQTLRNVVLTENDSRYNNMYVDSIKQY
Method in brief: as §1

human TLR9 = target: T3, human TLR9 (Homo sapiens, UniProt Q9NR96); experiment: TLR9 inhibition reporter assay (HEK-Blue cells, SEAP reporter, ODN2006 stimulation); details: HEK-Blue cells overexpressing human TLR9, SEAP reporter, ODN2006 5 nM
T3 construct: host or cells: HEK-Blue cells (HEK293-derived reporter line)
T3 sequence (Q9NR96 26-1032): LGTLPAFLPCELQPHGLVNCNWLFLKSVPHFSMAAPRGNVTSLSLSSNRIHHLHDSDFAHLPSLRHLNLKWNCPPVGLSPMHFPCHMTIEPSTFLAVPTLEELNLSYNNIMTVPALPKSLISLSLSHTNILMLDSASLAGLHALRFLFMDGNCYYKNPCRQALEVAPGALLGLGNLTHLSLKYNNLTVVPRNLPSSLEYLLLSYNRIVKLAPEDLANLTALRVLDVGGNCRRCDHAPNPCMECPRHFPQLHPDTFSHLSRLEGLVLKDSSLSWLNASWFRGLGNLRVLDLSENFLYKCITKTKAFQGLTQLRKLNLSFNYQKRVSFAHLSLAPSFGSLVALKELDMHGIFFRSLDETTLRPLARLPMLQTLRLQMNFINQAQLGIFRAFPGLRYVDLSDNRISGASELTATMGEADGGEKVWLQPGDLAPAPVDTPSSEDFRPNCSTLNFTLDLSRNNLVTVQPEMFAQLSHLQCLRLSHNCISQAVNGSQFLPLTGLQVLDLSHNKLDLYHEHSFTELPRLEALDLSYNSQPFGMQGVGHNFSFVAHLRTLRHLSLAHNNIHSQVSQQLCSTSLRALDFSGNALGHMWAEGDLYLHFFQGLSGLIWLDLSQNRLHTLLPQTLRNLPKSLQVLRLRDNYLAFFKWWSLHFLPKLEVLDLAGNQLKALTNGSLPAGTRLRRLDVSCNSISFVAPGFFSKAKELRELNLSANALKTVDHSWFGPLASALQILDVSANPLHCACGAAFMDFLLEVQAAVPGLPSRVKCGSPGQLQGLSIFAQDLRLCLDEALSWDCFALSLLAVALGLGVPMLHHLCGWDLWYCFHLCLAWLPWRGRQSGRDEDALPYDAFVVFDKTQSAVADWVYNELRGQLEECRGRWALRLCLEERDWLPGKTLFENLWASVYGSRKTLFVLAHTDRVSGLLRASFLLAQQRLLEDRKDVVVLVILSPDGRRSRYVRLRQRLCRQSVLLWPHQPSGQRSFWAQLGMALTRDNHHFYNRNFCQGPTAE
Method in brief: as §1

IC50 (human TLR7) [nM] | IC50 (human TLR8) [nM] | IC50 (human TLR9) [nM] | SMILES
< 100 | 100 to 1000 | > 50000 | CC(=O)NCC(=O)N1CCC(c2ccc3[nH]c(-c4ccnc5[nH]ncc45)c(C(C)C)c3c2)CC1 [Example 567, N-(2-(4-(3-isopropyl-2-(1H-pyrazolo[3,4-b]pyridin-4-yl)-1H-indol-5-yl)piperidin-1-yl)-2-oxoethyl)acetamide]
< 100 | < 100 | < 100 | CCN1CCC(N2CCC(c3ccc4[nH]c(-c5ccnc6[nH]ccc56)c(C)c4c3)CC2)CC1 [Example 811, 4-(5-(1′-ethyl-[1,4′-bipiperidin]-4-yl)-3-methyl-1H-indol-2-yl)-1H-pyrrolo[2,3-b]pyridine]
< 100 | 1000 to 50000 | 1000 to 50000 | Cc1nc2cc(-c3[nH]c4ccc(C5CCN(C(=O)[C@@H]6C[C@@H](O)CN6)CC5)cc4c3C(C)C)ccn2n1 [Example 540, ((2S,4R)-4-hydroxypyrrolidin-2-yl)(4-(3-isopropyl-2-(2-methyl-[1,2,4]triazolo[1,5-a]pyridin-7-yl)-1H-indol-5-yl)piperidin-1-yl) methanone]
100 to 1000 | < 100 | 100 to 1000 | CCc1c(-c2cnc3ncccn23)[nH]c2ccc(C3CCNCC3)cc12 [Example 29, 3-(3-ethyl-5-(piperidin-4-yl)-1H-indol-2-yl) imidazo[1,2-a]pyrimidine]
< 100 | < 100 | 100 to 1000 | Cc1cc(-c2[nH]c3ccc(C4CCN(C5CCS(=O)(=O)CC5)CC4)cc3c2C(C)C)cn2ccnc12 [Example 799, 4-(4-(3-isopropyl-2-(8-methylimidazo[1,2-a]pyridin-6-yl)-1H-indol-5-yl)piperidin-1-yl)tetrahydro-2H-thiopyran 1,1-dioxide]
< 100 | < 100 | 100 to 1000 | CC(C)c1c(-c2ccc3[nH]nnc3c2)[nH]c2ccc(C3CCNCC3)cc12 [Example 51, 5-(3-isopropyl-5-(piperidin-4-yl)-1H-indol-2-yl)-1H-benzo[d][1,2,3]triazole]
< 100 | < 100 | 1000 to 50000 | COc1cc(-c2[nH]c3ccc(C4CCN(C5COC5)CC4)cc3c2C(C)C)nn2ncnc12 [Example 732, 6-(3-isopropyl-5-(1-(oxetan-3-yl)piperidin-4-yl)-1H-indol-2-yl)-8-methoxy-[1,2,4]triazolo[1,5-b]pyridazine]
100 to 1000 | < 100 | 100 to 1000 | CCc1c(-c2ccnc3[nH]cc(Cl)c23)[nH]c2ccc(C3CCN(C4CCN(C(C)C)CC4)CC3)cc12 [Example 842, 3-chloro-4-(3-ethyl-5-(1′-isopropyl-[1,4′-bipiperidin]-4-yl)-1H-indol-2-yl)-1H-pyrrolo[2,3-b]pyridine]
< 100 | < 100 | 1000 to 50000 | CC(C)c1c(-c2ccnc3[nH]ncc23)[nH]c2ccc(C3CCN(Cc4csc(N)n4)CC3)cc12 [Example 925, 4-((4-(3-isopropyl-2-(1H-pyrazolo[3,4-b]pyridin-4-yl)-1H-indol-5-yl)piperidin-1-yl)methyl)thiazol-2-amine]
< 100 | < 100 | 1000 to 50000 | Cc1cc(-c2[nH]c3ccc(C4CCN(CC(=O)N(C)C)CC4)cc3c2C(C)C)cn2cc(C(=O)N(C)CCO)nc12 [Example 344, 6-(5-(1-(2-(dimethylamino)-2-oxoethyl)piperidin-4-yl)-3-isopropyl-1H-indol-2-yl)-N-(2-hydroxyethyl)-N,8-dimethylimidazo[1,2-a]pyridine-2-carboxamide]
< 100 | < 100 | 1000 to 50000 | CNC(=O)CN1CCC(c2ccc3[nH]c(-c4cc(C)n5nncc5c4)c(C(C)C)c3c2)CC1 [Example 320, 2-(4-(3-isopropyl-2-(7-methyl-[1,2,3]triazolo[1,5-a]pyridin-5-yl)-1H-indol-5-yl)piperidin-1-yl)-N-methylacetamide]
< 100 | < 100 | 100 to 1000 | Cc1cc(-c2[nH]c3ccc(C4CCN(CC#N)CC4)cc3c2C(C)C)cn2nnnc12 [Example 961, 2-(4-(3-isopropyl-2-(8-methyltetrazolo[1,5-a]pyridin-6-yl)-1H-indol-5-yl)piperidin-1-yl)acetonitrile]
< 100 | < 100 | 1000 to 50000 | CNC(=O)CN1CCC(c2ccc3[nH]c(-c4cc(C)c5nccn5n4)c(C(C)C)c3c2)CC1 [Example 448, 2-(4-(3-isopropyl-2-(8-methylimidazo[1,2-b]pyridazin-6-yl)-1H-indol-5-yl)piperidin-1-yl)-N-methylacetamide]
< 100 | 100 to 1000 | 1000 to 50000 | CC(C)c1c(-c2ccn3nncc3c2)[nH]c2ccc(C3CCN(C(=O)CN(C)C)CC3)cc12 [Example 465, 1-(4-(2-([1,2,3]triazolo [1,5-a]pyridin-5-yl)-3-isopropyl-1H-indol-5-yl)piperidin-1-yl)-2-(dimethylamino)ethan-1-one]
